Reference: article PMC10620772, “Design, synthesis, and biological evaluation of new pyrimidine-5-carbonitrile derivatives as novel anti-cancer, dual EGFR^WT/COX-2 inhibitors with docking studies” (RSC Advances, 2023)

How the values were obtained:
Test in all cases: NCI60 antitumor screening
Assay type in all cases: cell-based, human
CCRF-CEM = settings: Homo sapiens; 10 μM single dose; CCRF-CEM (leukaemia); read-out: growth inhibition percent (GI%)
HL-60(TB) = settings: Homo sapiens; 10 μM single dose; HL-60(TB) (leukaemia); read-out: growth inhibition percent (GI%)
K-562 = settings: Homo sapiens; 10 μM single dose; (leukaemia); read-out: growth inhibition percent (GI%)
MOLT-4 = settings: Homo sapiens; 10 μM single dose; MOLT-4 (leukaemia); read-out: growth inhibition percent (GI%)
A549/ATCC = settings: Homo sapiens; 10 μM single dose; A549/ATCC (non-small cell lung cancer); read-out: growth inhibition percent (GI%)
HOP-62 = settings: Homo sapiens; 10 μM single dose; HOP-62 (non-small cell lung cancer); read-out: growth inhibition percent (GI%)
NCI-H322M = settings: Homo sapiens; 10 μM single dose; NCI-H322M (non-small cell lung cancer); read-out: growth inhibition percent (GI%)
NCI-H460 = settings: Homo sapiens; 10 μM single dose; NCI-H460 (non-small cell lung cancer); read-out: growth inhibition percent (GI%)
NCI-H522 = settings: Homo sapiens; 10 μM single dose; NCI-H522 (non-small cell lung cancer); read-out: growth inhibition percent (GI%)
HCT-15 = settings: Homo sapiens; 10 μM single dose; HCT-15 (colon cancer); read-out: growth inhibition percent (GI%)
HT29 = settings: Homo sapiens, HT-29; 10 μM single dose; HT29 (colon cancer); read-out: growth inhibition percent (GI%)
KM12 = settings: Homo sapiens; 10 μM single dose; KM12 (colon cancer); read-out: growth inhibition percent (GI%)
SF-268 = settings: Homo sapiens; 10 μM single dose; SF-268 (CNS cancer); read-out: growth inhibition percent (GI%)
SF-295 = settings: Homo sapiens; 10 μM single dose; SF-295 (CNS cancer); read-out: growth inhibition percent (GI%)
SF-539 = settings: Homo sapiens; 10 μM single dose; SF-539 (CNS cancer); read-out: growth inhibition percent (GI%)
SNB-19 = settings: Homo sapiens; 10 μM single dose; SNB-19 (CNS cancer); read-out: growth inhibition percent (GI%)
SNB-75 = settings: Homo sapiens; 10 μM single dose; SNB-75 (CNS cancer); read-out: growth inhibition percent (GI%)
U251 = settings: Homo sapiens, U-251; 10 μM single dose; U251 (CNS cancer); read-out: growth inhibition percent (GI%)
MALME-3M = settings: Homo sapiens; 10 μM single dose; MALME-3M (melanoma); read-out: growth inhibition percent (GI%)
M14 = settings: Homo sapiens; 10 μM single dose; M14 (melanoma); read-out: growth inhibition percent (GI%)
MDA-MB-435 = settings: Homo sapiens; 10 μM single dose; MDA-MB-435 (melanoma); read-out: growth inhibition percent (GI%)
SK-MEL-5 = settings: Homo sapiens; 10 μM single dose; SK-MEL-5 (melanoma); read-out: growth inhibition percent (GI%)
UACC-257 = settings: Homo sapiens; 10 μM single dose; UACC-257 (melanoma); read-out: growth inhibition percent (GI%)
IGROV1 = settings: Homo sapiens, IGROV-1; 10 μM single dose; IGROV1 (ovarian cancer); read-out: growth inhibition percent (GI%)
OVCAR-3 = settings: Homo sapiens; 10 μM single dose; OVCAR-3 (ovarian cancer); read-out: growth inhibition percent (GI%)
OVCAR-5 = settings: Homo sapiens; 10 μM single dose; OVCAR-5 (ovarian cancer); read-out: growth inhibition percent (GI%)
786–0 = settings: Homo sapiens; 10 μM single dose; 786–0 (renal cancer); read-out: growth inhibition percent (GI%)
A498 = settings: Homo sapiens; 10 μM single dose; A498 (renal cancer); read-out: growth inhibition percent (GI%)
ACHN = settings: Homo sapiens; 10 μM single dose; ACHN (renal cancer); read-out: growth inhibition percent (GI%)
CAKI-1 = settings: Homo sapiens; 10 μM single dose; CAKI-1 (renal cancer); read-out: growth inhibition percent (GI%)
SN12C = settings: Homo sapiens; 10 μM single dose; SN12C (renal cancer); read-out: growth inhibition percent (GI%)
TK-10 = settings: Homo sapiens; 10 μM single dose; TK-10 (renal cancer); read-out: growth inhibition percent (GI%)
PC-3 = settings: Homo sapiens; 10 μM single dose; PC-3 (prostate cancer); read-out: growth inhibition percent (GI%)
MCF7 = settings: Homo sapiens; 10 μM single dose; MCF7 (breast cancer); read-out: growth inhibition percent (GI%)
HS 578T = settings: Homo sapiens; 10 μM single dose; HS 578T (breast cancer); read-out: growth inhibition percent (GI%)
T-47D = settings: Homo sapiens, T47D; 10 μM single dose; T-47D (breast cancer); read-out: growth inhibition percent (GI%)
MDA-MB-468 = settings: Homo sapiens; 10 μM single dose; MDA-MB-468 (breast cancer); read-out: growth inhibition percent (GI%)

CN1CCN(c2nc(SCc3ccc([N+](=O)[O-])cc3)nc(-c3ccc(F)cc3)c2C#N)CC1 [4k, 4-(4-Fluorophenyl)-6-(4-methylpiperazin-1-yl)-2-((4-nitrobenzyl)thio)pyrimidine-5-carbonitrile]
inhibition at 10 µM (CCRF-CEM): 17.5%
inhibition at 10 µM (HL-60(TB)): < 10%
inhibition at 10 µM (K-562): 23.3%
inhibition at 10 µM (MOLT-4): 17.6%
inhibition at 10 µM (A549/ATCC): 18.7%
inhibition at 10 µM (HOP-62): 26.3%
inhibition at 10 µM (NCI-H322M): 26.3%
inhibition at 10 µM (NCI-H460): < 10%
inhibition at 10 µM (NCI-H522): 21.3%
inhibition at 10 µM (HCT-15): 15.7%
inhibition at 10 µM (HT29): < 10%
inhibition at 10 µM (KM12): < 10%
inhibition at 10 µM (SF-268): < 10%
inhibition at 10 µM (SF-295): 29.3%
inhibition at 10 µM (SF-539): 41%
inhibition at 10 µM (SNB-19): 29.6%
inhibition at 10 µM (SNB-75): 25.7%
inhibition at 10 µM (U251): < 10%
inhibition at 10 µM (MALME-3M): 27.2%
inhibition at 10 µM (M14): < 10%
inhibition at 10 µM (MDA-MB-435): < 10%
inhibition at 10 µM (SK-MEL-5): 16.4%
inhibition at 10 µM (UACC-257): < 10%
inhibition at 10 µM (IGROV1): < 10%
inhibition at 10 µM (OVCAR-3): < 10%
inhibition at 10 µM (OVCAR-5): 16.8%
inhibition at 10 µM (786–0): 26.4%
inhibition at 10 µM (A498): < 10%
inhibition at 10 µM (ACHN): 31.5%
inhibition at 10 µM (CAKI-1): 34.8%
inhibition at 10 µM (SN12C): 15.8%
inhibition at 10 µM (TK-10): < 10%
inhibition at 10 µM (PC-3): 25.9%
inhibition at 10 µM (MCF7): 17.6%
inhibition at 10 µM (HS 578T): 42.6%
inhibition at 10 µM (T-47D): 28.6%
inhibition at 10 µM (MDA-MB-468): 12.4%
